Patent publication US9827316B2, “Cardiovascular disease treatment and prevention” (priority 2013, dated 2017)

Assays:
[1] = Laser Doppler capillary blood flow in humans, 10,000 ppm NO in closed chamber (Example 5); assay type: in vivo, human; settings: positive control, 1/10% in alcohol applied to skin
Excerpt: The formulation used in these studies contained nitric oxide dispersed in a lipid matrix. […] Nitric oxide is a very rapid acting molecule, and these studies used a system that employed laser Doppler with a covered chamber. The formulation was placed into the chamber and then attached to the skin by an adhesive layer on the covering. This provided a stable measuring device as determined by multiple normal evaluations of the capillary blood flow without treatment of nitric oxide.
A known positive control, methyl nicotinate, was applied to the skin at a concentration of 1/10% in alcohol. […] The vascular dynamics are such that when the blood vessels dilate physical parameters follow Bernoulli's law. This states that as one increases the diameter of a tube containing a liquid to flow will increase but the pressure and the speed of the liquid will decrease. The laser Doppler device accurately measured these parameters.
The test product was labeled as 10,000 ppm NO (nitric oxide). The study participants had 100 mg of the test product applied in a closed Hilltop chamber on the forearm. […]
A Moor Instruments DRT4 Laser Doppler Blood Flow Monitor (Devon, England) was used in these studies. The laser Doppler technique measured blood flow in the microcapillaries of the skin that are close to the skin surface and the blood flow in underlying arterioles and venules that help to regulate skin temperature. […]

[2] = Laser Doppler circulation in five human subjects (Example 8); assay type: in vivo; settings: positive control formulation, 0.1%
Excerpt: This example illustrates delivery of nitric oxide formulations to five human subjects, using procedures and formulations similar to those discussed in Example 5. Each person served as their own control for the testing. A Moor Instruments Laser Doppler was used to determine circulation. […] The formulations used produce positive, almost immediate results when applied to the skin which, in these studies, was manifested by vasodilatation of the cutaneous vascular system.
For each subject, the following creams were applied: a negative control formulation (containing no NO), 0.010 gram of a 10,000 ppm NO formulation, 0.020 gram of a 10,000 ppm NO formulation, and a positive control formulation containing 0.1% methyl nicotinate. The formulations were prepared using procedures similar to those discussed in Example 1.

[3] = Nitric oxide gas bubbled through carrier, change in weight; assay type: physicochemical; settings: NO bubbled 40 hr, 25 ° C.
Procedure: This example illustrates one technique for preparing a composition in accordance with one embodiment of the invention. An accurate amount of a carrier (HNC 167-62) (see below) was introduced into a system. The carrier weight used in these experiments was approximately 250 g and the vessel size was 500 ml. The vessel was equipped with a mechanical stirrer, gas inlet, and gas outlet and was previously purged with argon for about an hour. The temperature of the carrier was kept at about 25-30° C. NO gas regulated at 5 psi (1 psi is about 6,900 Pa) and was then introduced at a controlled rate of about 1 bubble/s with continuous stirring. […] After 6 hours, the weight of the carrier had increased by 0.15%, by 12 hours by 0.25%, and by 24 hours by 0.56%. These increases in weight were believed to be significant considering the relative small molecular weight of NO versus the carrier. […] The carrier also can solidify upon cooling if the carrier is initially a solid at lower temperature.
Each carrier was taken in a 500 mL three necked flask equipped with a mechanical stirrer, gas inlet and a gas outlet. The system was purged with argon for one hour at room temperature (25° C.). Then nitric oxide gas was bubbled into the system. Then, nitric oxide gas was bubbled through carrier for stipulated amount of time. The changes in weight and color were noted. […]

SMILES	laser Doppler response of skin blood flow [1]	vasodilatation [2]	% Wt. gain [3] [%]
COC(=O)c1cccnc1 [methyl nicotinate]	rapid response typical of the vasodilator	vasodilatation was observed	
OCCCO [1,3-Propanediol, 1,3-propanediol]			0.09
